Measured values published in patent US20240027453A1, “METHOD FOR DETECTION AND QUANTITATIVE MONITORING OF INFECTIONS WITH HERPESVIRUSES” (The Trustees of Princeton University, priority 2020, published 2024).
Read-outs that look alike come from different tables or passages of the source.

Test system: HCMV
Format: cell-based
Conditions: FIG. 7A
Procedure, shortened: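 MRC5 human fibroblasts treated with compound or DMSO/PBS 12 h before infection with HSV-1 17+ or HCMV AD169 at MOI 3, drug re-added every 24 h. Viral proteins quantified by targeted PRM LC-MS/MS of tryptic peptides, summed 3-4 transitions, normalized to host loading-control peptides and scaled to each peptide's average across runs.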
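Throughout, for TRM2 (P16792) protein level: each peptide scaled to its average across all runs.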
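Throughout, for UL29 (P16764) protein level: each peptide scaled to its average across all runs.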
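Throughout, for UL31 (P16848) protein level: each peptide scaled to its average across all runs.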
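Throughout, for UL88 (P16731) protein level: each peptide scaled to its average across all runs.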

Oc1ccc(C=Cc2cc(O)cc(O)c2)cc1 [Resveratrol]
UL122 (P19893) protein level (timepoint 48, IE): 0.07155
UL123 (P13202) protein level (timepoint 48, IE): 0.9494
CVC1 (P16799) protein level (timepoint 48, L): 0.3339
GO (P16750) protein level (timepoint 48, L): 0.02075
IR11 (P16809) protein level (timepoint 48, L): 0.3219
MCP (P16729) protein level (timepoint 48, L): 0.008603
SCP (Q7M6N6) protein level (timepoint 48, L): 0.008886
TRM2 (P16792) protein level (timepoint 48, L): 0.03458
UL22A (P16845) protein level (timepoint 48, L): 0.2188
UL25 (P16761) protein level (timepoint 48, L): 0.07603
UL29 (P16764) protein level (timepoint 48, L): 0.5648
UL30 (P16765) protein level (timepoint 48, L): 0.14
UL31 (P16848) protein level (timepoint 48, L): 0.3217
UL43 (P16781) protein level (timepoint 48, L): 0.06887
UL52 (P16793) protein level (timepoint 48, L): 0.09774
UL80 (P16753) protein level (timepoint 48, L): 0.04182
UL82 (P06726) protein level (timepoint 48, L): 0.2191
UL88 (P16731) protein level (timepoint 48, L): 0.09401
UL94 (P16800) protein level (timepoint 48, L): 0.1811
UL99 (P13200) protein level (timepoint 48, L): 0.09897
UL103 (P16734) protein level (timepoint 48, L): 0.1489
UL117 (P16770) protein level (timepoint 48, L): 0.4909
gL (P16832) protein level (timepoint 48, L): 0.05817
gM (P16733) protein level (timepoint 48, L): 0.04711
gN (P16795) protein level (timepoint 48, L): 0.08482
DUT (P16824) protein level (timepoint 48, LL): 0.2262
IR12 (P16810) protein level (timepoint 48, LL): 0.2614
TRM3 (P16732) protein level (timepoint 48, LL): 0.02426
TRX1 (P16783) protein level (timepoint 48, LL): 0.01259
TRX2 (P16728) protein level (timepoint 48, LL): 0.01003
UL24 (P16760) protein level (timepoint 48, LL): 0.1046
UL40 (P16780) protein level (timepoint 48, LL): 1.098
UL47 (P16784) protein level (timepoint 48, LL): 0.04257
UL49 (P16786) protein level (timepoint 48, LL): 0.91
UL69 (P16749) protein level (timepoint 48, LL): 0.3024
UL70 (P17149) protein level (timepoint 48, LL): 0.5546
UL83 (P06725) protein level (timepoint 48, LL): 0.03671
UL132 (P69338) protein level (timepoint 48, LL): 0.2027
US15 (P09718) protein level (timepoint 48, LL): 1.334
CVC2 (P16726) protein level (timepoint 72, DE): 0.05308
DBP (P17147) protein level (timepoint 72, DE): 0.2031
HELI (P16736) protein level (timepoint 72, DE): 0.7626
IR01 (P09710) protein level (timepoint 72, DE): 0.4495
NEC2 (P16791) protein level (timepoint 72, DE): 0.231
RIR1 (P16782) protein level (timepoint 72, DE): 0.1696
TRM1 (P16724) protein level (timepoint 72, DE): 0.1736
UL4 (P17146) protein level (timepoint 72, DE): 0.1863
UL26 (P16762) protein level (timepoint 72, DE): 0.087
UL32 (P08318) protein level (timepoint 72, DE): 0.09834
UL34 (P16812) protein level (timepoint 72, DE): 0.1945
UL35 (P16766) protein level (timepoint 72, DE): 0.0668
UL38 (P16779) protein level (timepoint 72, DE): 0.6571
UL44 (P16790) protein level (timepoint 72, DE): 0.1077
UL48 (P16785) protein level (timepoint 72, DE): 0.0769
UL54 (P08546) protein level (timepoint 72, DE): 0.8921
UL71 (P16823) protein level (timepoint 72, DE): 0.4201
UL78 (P16751) protein level (timepoint 72, DE): 0.4371
UL84 (P16727) protein level (timepoint 72, DE): 0.1807
UL95 (P16801) protein level (timepoint 72, DE): 0.4887
UL96 (P16787) protein level (timepoint 72, DE): 0.2804
UL97 (P16788) protein level (timepoint 72, DE): 0.2884
UL98 (P16789) protein level (timepoint 72, DE): 0.2614
UL102 (P16827) protein level (timepoint 72, DE): 1.1
UL104 (P16735) protein level (timepoint 72, DE): 0.1108
UL112/UL113 (P17151) protein level (timepoint 72, DE): 0.3912
UL114 (P16769) protein level (timepoint 72, DE): 1.097
UL119/UL118 (P16739) protein level (timepoint 72, DE): 0.2241
UL128 (P16837) protein level (timepoint 72, DE): 0.03713
US8 (P09730) protein level (timepoint 72, DE): 1.041
US9 (P09729) protein level (timepoint 72, DE): 1.966
US12 (P09721) protein level (timepoint 72, DE): 0.2709
US13 (P09720) protein level (timepoint 72, DE): 0.5064
US14 (P09719) protein level (timepoint 72, DE): 0.1413
US22 (P09722) protein level (timepoint 72, DE): 0.5654
US23 (P09701) protein level (timepoint 72, DE): 0.5216
US24 (P09700) protein level (timepoint 72, DE): 0.3422
gB (P06473) protein level (timepoint 72, DE): 0.2078
IRS1 (P09715) protein level (timepoint 72, IE): 1.155
TRS1 (P09695) protein level (timepoint 72, IE): 1.081
UL13 (P16755) protein level (timepoint 72, IE): 0.4777
UL36 (P16767) protein level (timepoint 72, IE): 0.8125
UL37 (P16778) protein level (timepoint 72, IE): 0.998
UL122 (P19893) protein level (timepoint 72, IE): 0.0988
UL123 (P13202) protein level (timepoint 72, IE): 0.8573
CVC1 (P16799) protein level (timepoint 72, L): 0.4295
GO (P16750) protein level (timepoint 72, L): 0.03881
IR11 (P16809) protein level (timepoint 72, L): 0.253
MCP (P16729) protein level (timepoint 72, L): 0.01144
SCP (Q7M6N6) protein level (timepoint 72, L): 0.004632
TRM2 (P16792) protein level (timepoint 72, L): 0.02287
UL22A (P16845) protein level (timepoint 72, L): 0.2623
UL25 (P16761) protein level (timepoint 72, L): 0.1265
UL29 (P16764) protein level (timepoint 72, L): 0.4756
UL30 (P16765) protein level (timepoint 72, L): 0.1344
UL31 (P16848) protein level (timepoint 72, L): 0.3595
UL43 (P16781) protein level (timepoint 72, L): 0.07284
UL52 (P16793) protein level (timepoint 72, L): 0.1143
UL76 (P16725) protein level (timepoint 72, L): 0.0261
UL80 (P16753) protein level (timepoint 72, L): 0.05404
UL82 (P06726) protein level (timepoint 72, L): 0.2813
UL87 (P16730) protein level (timepoint 72, L): 0.03862
UL88 (P16731) protein level (timepoint 72, L): 0.1555
UL94 (P16800) protein level (timepoint 72, L): 0.2402
UL99 (P13200) protein level (timepoint 72, L): 0.1374
UL103 (P16734) protein level (timepoint 72, L): 0.1294
UL117 (P16770) protein level (timepoint 72, L): 0.3032
gH (P12824) protein level (timepoint 72, L): 0.1717
gL (P16832) protein level (timepoint 72, L): 0.07772
gM (P16733) protein level (timepoint 72, L): 0.06954
gN (P16795) protein level (timepoint 72, L): 0.07119
IR12 (P16810) protein level (timepoint 72, LL): 0.182
TRM3 (P16732) protein level (timepoint 72, LL): 0.02749
TRX1 (P16783) protein level (timepoint 72, LL): 0.01995
TRX2 (P16728) protein level (timepoint 72, LL): 0.01998
UL24 (P16760) protein level (timepoint 72, LL): 0.1072
UL40 (P16780) protein level (timepoint 72, LL): 0.6851
UL47 (P16784) protein level (timepoint 72, LL): 0.08828
UL49 (P16786) protein level (timepoint 72, LL): 1.209
UL69 (P16749) protein level (timepoint 72, LL): 0.3758
UL70 (P17149) protein level (timepoint 72, LL): 0.682
UL83 (P06725) protein level (timepoint 72, LL): 0.03846
UL132 (P69338) protein level (timepoint 72, LL): 0.215
US15 (P09718) protein level (timepoint 72, LL): 0.6869
